# Laboratory results from US20070225291A1, “Substituted Pyrazinone Compounds for the Treatment of Inflammation” (Pfizer Inc., priority 2003, published 2007).
# Molecular target: T1, IKK-2 (Homo sapiens, UniProt O14920)
# T1 construct: made in house; host or cells: baculovirus-infected insect cells (SF9)
# T1 sequence (O14920 1-756): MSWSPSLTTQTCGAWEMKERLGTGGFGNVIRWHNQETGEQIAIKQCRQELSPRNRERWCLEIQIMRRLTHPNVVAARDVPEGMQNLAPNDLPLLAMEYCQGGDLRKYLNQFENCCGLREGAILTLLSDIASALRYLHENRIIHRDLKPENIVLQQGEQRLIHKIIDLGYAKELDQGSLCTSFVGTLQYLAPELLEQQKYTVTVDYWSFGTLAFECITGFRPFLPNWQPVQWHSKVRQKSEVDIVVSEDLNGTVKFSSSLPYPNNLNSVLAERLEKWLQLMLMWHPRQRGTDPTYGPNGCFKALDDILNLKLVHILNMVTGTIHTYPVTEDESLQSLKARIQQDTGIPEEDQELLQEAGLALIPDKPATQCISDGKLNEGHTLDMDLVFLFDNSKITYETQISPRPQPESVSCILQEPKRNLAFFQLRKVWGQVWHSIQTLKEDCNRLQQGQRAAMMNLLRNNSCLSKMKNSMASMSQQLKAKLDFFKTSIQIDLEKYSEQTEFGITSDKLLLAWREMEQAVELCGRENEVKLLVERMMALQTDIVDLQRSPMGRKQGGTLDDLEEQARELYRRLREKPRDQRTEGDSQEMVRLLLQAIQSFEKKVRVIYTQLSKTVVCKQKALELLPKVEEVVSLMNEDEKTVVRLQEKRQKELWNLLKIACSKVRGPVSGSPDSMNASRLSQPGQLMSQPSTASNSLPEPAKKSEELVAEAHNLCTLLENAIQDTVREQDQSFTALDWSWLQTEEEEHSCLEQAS
# Assay: IKK-2 Resin Enzyme Assay (IKK-2 IC50 determination)
# Type: biochemical
# Settings: rhIKK-2 homodimer; biotinylated IκBα peptide 5 μM, 1 μM ATP, 25° C., 30 min
# Description: cDNAs of human IKK-1 and IKK-2 were amplified by reverse transcriptase-polymerase chain reaction from human placental RNA (Clonetech). hIKK-1 was subcloned into pFastBac HTa (Life Technologies) and expressed as N-terminal His6-tagged fusion protein. The hIKK-2 cDNA was amplified using a reverse oligonucleotide primer which incorporated the peptide sequence for a FLAG-epitope tag at the C-terminus of the IKK-2 coding region (DYKDDDDKD). The hIKK-2:FLAG cDNA was subcloned into the baculovirus vector pFastBac. The rhIKK-2 (S177S, E177E) mutant was constructed in the same vector used for wild type rhIKK-2 using a QuikChange™ mutagenesis kit (Stratagene). Viral stocks of each construct were used to infect insect cells grown in 40L suspension culture. […] Cell lysates were stored at −80° C. until purification of the recombinant proteins was undertaken as described below.
# A 10-liter culture of baculovirus-expressing IKK-2 tagged with FLAG peptide was centrifuged and the cell pellet (MOI=0.1 and I=72 hrs) was re-suspended in buffer A. These cells were microfluidized, and centrifuged at 100,000×g for 45 min. Supernatant was passed over a G-25 column equilibrated with Buffer A. Protein peak was collected and incubated with anti-FLAG affinity resin on a rotator overnight in buffer B. The resin was washed in batch with 10-15 bed volumes of buffer C. Washed resin was poured into a column and rhIKK-2 homodimer was eluted using 5 bed volumes of buffer B containing FLAG peptide. 5 mM DTT, 0.1% NP-40 and BSA (concentrated to 0.1% in final amount) was added to the eluted enzyme before concentrating in using an Amicon membrane with a molecular weight cut-off of 30 kDa. Enzyme was aliquoted and stored at −80° C.
# IKK-2 kinase activity was measured using a biotinylated IκBα peptide (Gly-Leu-Lys-Lys-Glu-Arg-Leu-Leu-Asp-Asp-Arg-His-Asp-Ser32-Gly-Leu-Asp-Ser36-Met-Lys-Asp-Glu-Glu) (American Peptide Co.). 20 ul of the standard reaction mixture contained 5 μM biotinylated IκBA peptide, 0.1 μCi/reaction [γ-^33P] […] ATP was measured using a Top-Count NXT (Packard).
row,IC50 [µM],Structure (SMILES)
1,1.08,"Nc1nc(-c2ccccc2O)cn(C2CCCNC2)c1=O (stereo not drawn) [Example 1, 3-amino-5-(2-hydroxyphenyl)-1-piperidin-3-ylpyrazin-2(1H)-one]"
2,0.903,"Nc1nc(-c2cc(F)ccc2O)cn(C2CCCNC2)c1=O (stereo not drawn) [Example 2, 3-amino-5-(5-fluoro-2-hydroxyphenyl)-1-piperidin-3-ylpyrazin-2(1H)-one]"
3,1.79,"Nc1nc(-c2ccc(F)cc2O)cn(C2CCCNC2)c1=O (stereo not drawn) [Example 3, 3-amino-5-(4-fluoro-2-hydroxyphenyl)-1-piperidin-3-ylpyrazin-2(1H)-one]"
